According to patent US20110119780A1, “SCREENING FOR NON-GENOTOXIC CARCINOGENS” (priority 2008, published 2011):
Where “and” joins values, the source holds several entries; their conditions need not be identical. Identical values can stand only once.

How the values were obtained:
[1] = system: hepatocellular hypertrophy; experiment: H&E staining of liver sections, Chlordane-treated mice; format: in vivo
Text: A 20× objective lens was used to capture the images.

[2] = PXR/CAR-dependent hepatomegaly by PB (body, liver weights); settings: 80 mg/kg IP x4 days; for Body weight - Day 1 / Body weight - Day 5 / Liver weight / Liver/Body weight Ratio: Mean ± SD
Text: In order to assess whether humanised PXR/CAR mice mimic the response to PB in humans, the huPXR/huCAR and PXRKO/CARKO mouse models were used. The mutant mouse strains were obtained from Artemis. The WT mouse strain C57BL/6J was obtained from Harlan (UK). All animals were between 10 and 16 weeks of age.The following parameters were studied: • Liver/body weight ratios • BrdU incorporation analysed as a measure of cell proliferation • Haematoxylin and eosin (H&E) liver histopathology • Expression and activity of P450s by SDS-PAGE and Western blotting in liver microsomes • Apoptotic indices as analysed by TUNEL assay in the liver
(§1) The study consisted of 6 groups with 10 WT mice per group, 9-10 PXRKO/CARKO mice per group and 9 huPXR/huCAR mice per group (Table 19). […] On Day 1 all animals were dosed with either 80 mg/kg PB/saline or saline alone by intraperitoneal injection for 4 days as detailed in Table 19.
Following treatment with PB or the vehicle, the mice were sacrificed and their livers were removed and weighed.

[3] = system: hepatocellular proliferation; experiment: Hepatic cell proliferation, BrdU incorporation (S-phase labelling index); settings: for % mean (S-phase labelling index relative to control of the same mouse line = 100) / % BrDu positive Cells, Mean / % BrDu positive Cells (hepatic S-phase labelling index), individual mouse: PB-treated; for % BrDu positive Cells, Mean: group mean; for % BrDu positive Cells (hepatic S-phase labelling index), individual mouse: individual animals
Protocol: Osmotic pumps containing BrdU (15 mg/ml/PBS) were implanted into WT, huPXR/huCAR and PXRKO/CARKO mice prior to PB treatment (80 mg/kg/4 days/IP). Livers sections were labelled using a Brdu antibody (Dako). All microscopic images were captured at a magnification of 40×. Data represents random sampling of 10 images per lobes (2) counting approximately 180,000 cells/animal group, as according to Pat-0013-0014. Values are expressed as Mean±SD, n=9-10 for control mice, n=8-9 for PB-treated mice.
as §1
All mouse liver and duodenum sections were analysed for BrdU incorporation as a measure of cell proliferation. The method used was an indirect BrdU labelling assay.

hepatocellular apoptosis = experiment: Liver in situ cell death, TUNEL labelling assay (apoptotic indices); format: in vivo; settings: WT, huPXR/huCAR and PXRKO/CARKO mice; Student's t-test
Text: Livers sections were labelled using a TUNEL in situ cell detection kit (Roche). […] Data represents random sampling of 20 images per lobes (2) counting approximately 380,000 cells/animal group.
However, no such consistency has been observed in mice. An indirect TUNEL labelling assay was used to analyse hepatic in situ death (FIG. 9/Table 21). The present study has shown a marker variation in apoptotic indices in mouse liver. Thus, small (e.g. 50%) compound-induced decreases, upon a low background, were not readily demonstrable.

[4] = system: hepatocellular hypertrophy; experiment: H&E analysis of liver sections, PB; format: in vivo, mice; settings: 80 mg/kg IP x4 days
Text: Portal vein (P) and central vein (C) are labelled. A 20× objective lens was used to capture the images.
Two samples of the liver (one from the lobe, one from the median lobe) and one sample of the small intestine were taken and preserved in 4% neutral buffered formaldehyde (NBF). The preserved liver samples of all mice of all groups were trimmed, processed and embedded in paraffin. The paraffin-embedded samples were sent to Progenix, Inverkeithing, UK where they were sectioned at a nominal thickness of about 5 æm and then stained with haematoxylin and eosin (H&E). One section of each organ sample was examined by Dr. Ortwin Vogel, Consultant Pathologist, Kiel, Germany. Subsequent to his histopatholoical analysis of all H&E stained mouse livers and small intestines, Dr. Vogel reported the following finding;

Cyp3a11 = experiment: Hepatic P450 induction: benzyloxyquinoline debenzylation (BQ) in liver microsomes; format: in vivo, mouse; settings: 80 mg/kg IP x4 days
Protocol: (§2) Each assay was performed on individual liver microsomes. Values are expressed as Mean±SD (n=9/10).

Cyp2b10 = experiment: Hepatic P450 induction: PROD and BROD in liver microsomes; format: in vivo, mouse; settings: 80 mg/kg IP x4 days
Protocol: as §2
BROD and PROD are markers of Cyp2b10 activity in the mouse. […] However, PROD or BROD activities were not altered in the PXRKO/CARKO mice upon exposure to PB. Overall, PB induced P450 catalytic activities in the WT and huPXR/huCAR mouse lines, but not in the animals which were devoid of these receptors.

Cyp1a1/1a2 = experiment: Hepatic P450 induction: MROD and EROD in liver microsomes; settings: 80 mg/kg IP x4 days
Protocol: as §2
P450 catalytic activities in the liver microsomal fractions were quantified. For the quantification of mouse Cyp2b10 and Cyp3a11 activities, the dealkylation of pentoxyresofurin (PROD) and the debenzylation of benzyloxyquinoline (BQ) activities, respectively. In addition, […] (BROD), methoxyresorufin-O-demethylase (MROD) and 7-ethoxyresorufin-)-deethylase (EROD) activities were also measured and evaluated (see FIG. 11).
EROD activity is indicative of Cyp1a1/1a2 and Cyp1b1 in the mouse, whereas MROD is a substrate for Cyp1a2. However, other isoforms may be contributing to the measured activities.

Cyp2b10 and Cyp3a11 = Cyp2b10 and Cyp3a11 protein in pooled liver microsomes by Western blotting, PB; format: in vivo, mouse
Protocol: Liver microsomes (0.3 ug) from each animal were pooled (n=9/10) for wild type, huPXR/huCAR and PXRKO/CARKO mice and characterised for Cyp2b10 and Cyp3a11 by immunoblotting using rabbit polyclonal CH4 (1:2000 dilution) and CH32 antibodies (1:2000 dilution), respectively (C. Henderson, University of Dundee, UK); +ve, control was either purified recombinant his-tagged Cyp3a11 membranes (0.1 pmol/u.l) or purified recombinant his-tagged Cyp2b10 membranes (O.Olpmol/u.l). Blots were developed using ECL and exposed for 30 secs.

Cyp3a11 and Cyp2b10 = experiment: Inductive effect of Phenobarbital in a panel of PXR/CAR knockout and humanised mice
[5] = Pentobarbitone sleeping test; format: in vivo, mice; settings: male, single intraperitoneal dose 25 mg/kg
Protocol: In this experiment, the activity of these transcription factors in combination was determined by measuring the barbiturate induced sleeping time. Sleeping time has been known for many years to be directly proportional to the hepatic cytochrome P450 activity and this activity can be at least in part ascribed to the P450 levels in the liver determined by CAR and PXR function.
Mice were given a single intraperitoneal dose of Narcoren (sodium pentobarbitone; purchased via a Veterinary Consultant; distributed by Merial GmbH, Germany) at 25 mg/kg of body weight. The time taken for the mice to lose, and subsequently to regain, their righting reflex was measured.

SMILES: ClC1=C(Cl)C2(Cl)C3C(Cl)C(Cl)CC3C1(Cl)C2(Cl)Cl (centres unmarked) [Chlordane]
- hypertrophy on H&E staining ([1]; PXRKO/CARKO mice): not
- liver finding on H&E staining ([1]; WT and hPXR_old/hCAR mice): hypertrophy

SMILES: CCC1(c2ccccc2)C(=O)NC(=O)NC1=O [PB, Phenobarbital]
- Body weight - Day 1, % mean own control ([2]; PXRKO/CARKO mice): (100 ± 8) %
- Body weight - Day 5, % mean own control ([2]; PXRKO/CARKO mice): (98 ± 8) %
- Liver weight, % mean own control ([2]; PXRKO/CARKO mice): (98 ± 16) %
- Liver/Body weight Ratio, % mean own control ([2]; PXRKO/CARKO mice): (100 ± 9) %
- Body weight - Day 1 ([2]; PXRKO/CARKO mice): 27.2 ± 2.2 g
- Body weight - Day 5 ([2]; PXRKO/CARKO mice): 26.6 ± 2.2 g
- Liver weight ([2]; PXRKO/CARKO mice): 1.42 ± 0.23 g
- Liver/Body weight Ratio ([2]; PXRKO/CARKO mice): 5.3 ± 0.4
- Body weight - Day 1, % mean own control ([2]; WT mice): (106 + 6) %
- Body weight - Day 5, % mean own control ([2]; WT mice): (84 ± 5) %
- Liver weight, % mean own control ([2]; WT mice): (101 ± 6) %
- Body weight - Day 1 ([2]; WT mice): 26.4 ± 1.8 g
- Body weight - Day 5 ([2]; WT mice): 23.2 ± 1.3 g
- Liver weight ([2]; WT mice): 1.44 ± 0.09 g
- Liver/Body weight Ratio ([2]; WT mice): 6.2 ± 0.2
- Body weight - Day 1, % mean own control ([2]; huPXR/huCAR mice): (104 ± 5) %
- Body weight - Day 5, % mean own control ([2]; huPXR/huCAR mice): (99 ± 6) %
- Liver weight, % mean own control ([2]; huPXR/huCAR mice): (121 ± 11) %
- Body weight - Day 1 ([2]; huPXR/huCAR mice): 26.3 ± 1.2 g
- Body weight - Day 5 ([2]; huPXR/huCAR mice): 25.4 ± 1.5 g
- Liver weight ([2]; huPXR/huCAR mice): 1.69 ± 0.16 g
- Liver/Body weight Ratio ([2]; huPXR/huCAR mice): 6.7 ± 0.6
- % mean (S-phase labelling index relative to control of the same mouse line = 100) ([3]; PXRKO/CARKO mice): 144%
- % BrDu positive Cells, Mean ([3]; PXRKO/CARKO mice): 2.83%
- % BrDu positive Cells (hepatic S-phase labelling index), individual mouse ([3]; PXRKO/CARKO mice): 2.16% and 1.98% and 1.82% and 2.30% and 3.77% and 5.10% and 3.71% and 1.88% and 3.06% and 2.51%
- % mean (S-phase labelling index relative to control of the same mouse line = 100) ([3]; WT mice): 531%
- % BrDu positive Cells, Mean ([3]; WT mice): 9.30%
- % BrDu positive Cells (hepatic S-phase labelling index), individual mouse ([3]; WT mice): 9.45% and 5.54% and 16.69% and 6.32% and 9.50% and 8.09% and 7.64% and 13.60%
- hepatocellular labelling index (S-phase), increase ([3]; WT mice, 80 mg/kg IP x4 days, BrdU): approximately 5 fold
- % mean (S-phase labelling index relative to control of the same mouse line = 100) ([3]; huPXR/huCAR mice): 104%
- % BrDu positive Cells, Mean ([3]; huPXR/huCAR mice): 2.00%
- % BrDu positive Cells (hepatic S-phase labelling index), individual mouse ([3]; huPXR/huCAR mice): 0.37% and 0.-18% and 1.19% and 1.86% and 3.GO and 1.98% and 3.18% and 3.24% and 2.13%
- effect on cell proliferation (BrdU labelling) ([3]; huPXR/huCAR or PXRKO/CARKO mice, 80 mg/kg IP x4 days): no effect
- Hepatic apoptotic indices (TUNEL), PB-treated vs control (hepatocellular apoptosis): no statistical significance found
- hepatocellular hypertrophy (H&E) ([4]; PXRKO/CARKO mice): no unequivocal evidence
- liver growth response (hypertrophy, hyperplasia), conclusion ([4]; PXRKO/CARKO mice): did not induce hepatomegaly
- liver growth response (hypertrophy, hyperplasia), conclusion ([4]; WT mice): induced hypertrophy and hyperplasia
- centrilobular hepatocellular hypertrophy (H&E) ([4]; huPXR/huCAR and WT animals): slight to moderate
- liver growth response (hypertrophy, hyperplasia), conclusion ([4]; huPXR/huCAR mice): induced hypertrophy but not hyperplasia
- Cyp3a11 induction (BQ activity) (Cyp3a11; PXRKO/CARKO mice): absence of Cyp3a11 induction
- BQ activity (Cyp3a11; WT animals, liver microsomes): marginal increase
- BQ activity, increase (Cyp3a11; huPXR/huCAR mice, liver microsomes): 5 fold
- PROD or BROD activities (Cyp2b10; PXRKO/CARKO mice): not altered
- Cyp2b10 induction (BROD and PROD activities) (Cyp2b10; WT and huPXR/huCAR mouse lines, at similar levels): marker Cyp2b10 induction was observed
- MROD and EROD enzyme activities (Cyp1a1/1a2; PXRKO/CARKO line): no increase
- MROD and EROD enzyme activities (Cyp1a1/1a2; WT and huPXR/huCAR mice): increased
- Cyp2b10 and Cyp3a11 protein induced (Western blotting) (Cyp2b10 and Cyp3a11; PXRKO/CARKO animals): not
- Cyp2b10 and Cyp3a11 protein (Western blotting) (Cyp2b10 and Cyp3a11; WT and humanised mouse lines): induced
- activation of Cyp3a11 and Cyp2b10 in vivo (Cyp3a11 and Cyp2b10): predominantly CAR-dependent

SMILES: CCCC(C)C1(CC)C(=O)NC(=O)NC1=O (centres unmarked) [pentobarbitone, sodium pentobarbitone]
- Sleeping time ([5]; PXR/CAR hum (double humanised) mouse): 34 min
- Sleeping time ([5]; Wt mouse): 21 min
